Positions count from the first letter of the chain named.
Experiments:
PPARγ WT LBD = target: T1, PPARγ WT LBD (Homo sapiens, UniProt P37231); experiment: SPR (Biacore T200, immobilized LBD); format: binding
T1 construct: gene PPARG; LBD, residues 195–477 in PPARγ1 numbering
T1 sequence (P37231 223-505): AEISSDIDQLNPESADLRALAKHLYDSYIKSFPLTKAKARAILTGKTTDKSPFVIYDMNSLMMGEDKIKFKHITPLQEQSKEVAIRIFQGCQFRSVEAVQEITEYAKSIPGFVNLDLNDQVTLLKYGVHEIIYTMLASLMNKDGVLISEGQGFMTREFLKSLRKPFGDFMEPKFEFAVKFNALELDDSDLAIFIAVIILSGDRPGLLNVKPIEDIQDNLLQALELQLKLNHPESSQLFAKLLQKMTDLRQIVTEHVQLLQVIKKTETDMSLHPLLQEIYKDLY

PPARγ R288A mutant LBD = target: T2, PPARγ R288A mutant LBD (Homo sapiens, UniProt P37231, R316A); experiment: ([…] Å) and SPR (Biacore T200); format: binding
T2 construct: gene PPARG; LBD, residues 195–477 in PPARγ1 numbering
T2 sequence (P37231 223-505 R316A): T1 sequence (P37231 223-505) with R94A

With Cc1ccc(NC(=O)c2ccc(CN3CCN(C)CC3)cc2)cc1Nc1nccc(-c2cccnc2)n1 [imatinib] the Kd (PPARγ WT LBD) was 231 nM and the Kd (PPARγ R288A mutant LBD) was 152 nM.

From publication PMC6803859, “Structural Basis for the Regulation of PPARγ Activity by Imatinib” (Molecules, 2019)
